{"source": "patent US9855245B2", "about": "“Methods for improving lipid profiles using atrasentan” (AbbVie Inc., priority 2013, dated 2018)", "key": {"[1]": {"system": "subjects with type 2 diabetes and nephropathy", "test": "Example 3: Phase 2b randomized, double-blind, placebo-controlled 8-week study with thoracic bioimpedance", "format": "in vivo, human", "settings": "for Death / Fatal adverse event: N = 16; for UACR Change from Baseline LS Mean (SE) / UACR Geometric Mean Change (Percent): baseline to final on-treatment measurement", "from_the_text": "This study also included measurement of thoracic bioimpedance to assess the potential for thoracic fluid retention with atrasentan.\nAn equal percentage of subjects in all 3 groups experienced an adverse event (81.3%). […] (Table 17).\nA mean decrease of 4 ohms in thoracic bioimpedance, as measured by the ZOE® Fluid Status Monitor, is considered clinically indicative of thoracic fluid overload. Mean thoracic bioimpedance fluctuated in all treatment groups over time, with greater mean changes in the 2 atrasentan groups than in the placebo group."}, "ob-ZSF1 rats": {"system": "ob-ZSF1 rats", "test": "Example 5: preclinical study of hypotensive synergy, mean arterial pressure", "format": "in vivo, rat", "from_the_text": "In the example, a preclinical animal model is used to evaluate whether atrasentan and an ARB cause a synergistic hypotensive effect."}, "[2]": {"test": "Example 6: modeling data on edema risk based on a Phase 2A study (NCT00920764)", "set-up": "species or system human", "from_the_text": "The graph was made by overlaying receptor occupancy data. (See also Table 20, below.)"}, "[3]": {"system": "subjects with type 2 diabetes and nephropathy", "test": "Example 1: Phase 2b randomized, double-blind, placebo-controlled 12-week clinical study", "description": "The primary efficacy endpoint was the change from baseline to Week 12 in log-transformed UACR with the primary analysis conducted using mixed-effects, maximum likelihood, repeated measures (MMRM) with fixed effects for treatment, country, visit, and treatment-by-visit interaction, with baseline measurement and baseline-by-visit interaction as covariates.\nAll safety analyses were performed on treatment-emergent adverse events only. Treatment-emergent adverse events were defined as those that first occurred or worsened on or after the date of first dose of study drug through 30 days after the last dose of study drug."}}}
{"compound": "CCCCN(CCCC)C(=O)CN1C[C@H](c2ccc3c(c2)OCO3)[C@@H](C(=O)O)[C@@H]1c1ccc(OC)cc1", "note": "[Atrasentan, (2R,3R,4S)-4-(1,3-benzodioxol-5-yl)-1-[2-(dibutylamino)-2-oxoethyl]-2-(4-methoxyphenyl)pyrrolidine-3-carboxylic acid]", "values": [{"measurement": "Death", "setting": "[1]; 0.5 mg", "value": "0 N (%) of Subjects"}, {"measurement": "Fatal adverse event", "setting": "[1]; 0.5 mg", "value": "0 N (%) of Subjects"}, {"measurement": "Cholesterol, Difference (95% CI) from placebo", "setting": "[1]; 0.5 mg/day", "value": "3.6 (−19.26, 26.46) mg/dL"}, {"measurement": "Cholesterol, Final On-Treatment Visit Mean (SD)", "setting": "[1]; 0.5 mg/day", "value": "155.1 (40.36) mg/dL"}, {"measurement": "Cholesterol, LS Mean Change from Baseline (SE)", "setting": "[1]; 0.5 mg/day", "value": "−1.5 (7.05) mg/dL"}, {"measurement": "HDL-C, Difference (95% CI) from placebo", "setting": "[1]; 0.5 mg/day", "value": "1.9 (−3.54, 7.28) mg/dL"}, {"measurement": "HDL-C, Final On-Treatment Visit Mean (SD)", "setting": "[1]; 0.5 mg/day", "value": "41.1 (9.92) mg/dL"}, {"measurement": "HDL-C, LS Mean Change from Baseline (SE)", "setting": "[1]; 0.5 mg/day", "value": "−0.5 (1.67) mg/dL"}, {"measurement": "Had ≧30% Reduction in UACR and No Edema (no moderate or severe adverse event of edema)", "setting": "[1]; 0.5 mg/day", "value": 31.3, "unit": "%"}, {"measurement": "LDL-C, Difference (95% CI) from placebo", "setting": "[1]; 0.5 mg/day", "value": "3.1 (−19.49, 25.75) mg/dL"}, {"measurement": "LDL-C, Final On-Treatment Visit Mean (SD)", "setting": "[1]; 0.5 mg/day", "value": "68.1 (23.33) mg/dL"}, {"measurement": "LDL-C, LS Mean Change from Baseline (SE)", "setting": "[1]; 0.5 mg/day", "value": "−0.3 (6.67) mg/dL"}, {"measurement": "Percentage of Subjects with ≧30% Reduction in Log-Transformed UACR from Baseline to Final Measurement", "setting": "[1]; 0.5 mg/day", "value": 50.0, "unit": "%"}, {"measurement": "Percentage of Subjects with ≧40% Reduction in Log-Transformed UACR from Baseline to Final Measurement", "setting": "[1]; 0.5 mg/day", "value": 31.3, "unit": "%"}, {"measurement": "Percentage of Subjects with ≧50% Reduction in Log-Transformed UACR from Baseline to Final Measurement", "setting": "[1]; 0.5 mg/day", "value": 18.8, "unit": "%"}, {"measurement": "Triglycerides, Difference (95% CI) from placebo", "setting": "[1]; 0.5 mg/day", "value": "−29.8 (−14.09, 44.49) mg/dL"}, {"measurement": "Triglycerides, Final On-Treatment Visit Mean (SD)", "setting": "[1]; 0.5 mg/day", "value": "206.1 (71.42) mg/dL"}, {"measurement": "Triglycerides, LS Mean Change from Baseline (SE)", "setting": "[1]; 0.5 mg/day", "value": "−2.3 (22.89) mg/dL"}, {"measurement": "geometric mean reduction in UACR, baseline to final on-treatment measurement", "setting": "[1]; 0.5 mg/day", "value": 27.7, "unit": "%"}, {"measurement": "UACR Between-group Comparison Difference (90% CI)", "setting": "[1]; 0.5 mg/day vs placebo", "value": "0.04 (−0.28, 0.36)"}, {"measurement": "UACR Change from Baseline LS Mean (SE)", "setting": "[1]; 0.5 mg/day", "value": "−0.32", "unit": "log mg/g creatinine"}, {"measurement": "UACR Geometric Mean Change (Percent)", "setting": "[1]; 0.5 mg/day", "value": "−27.69", "unit": "%"}, {"measurement": "Death", "setting": "[1]; 1.25 mg", "value": "0 N (%) of Subjects"}, {"measurement": "Fatal adverse event", "setting": "[1]; 1.25 mg", "value": "0 N (%) of Subjects"}, {"measurement": "Cholesterol, Difference (95% CI) from placebo", "setting": "[1]; 1.25 mg/day", "value": "−14.7 (−37.99, 8.54) mg/dL"}, {"measurement": "Cholesterol, Final On-Treatment Visit Mean (SD)", "setting": "[1]; 1.25 mg/day", "value": "169.4 (46.02) mg/dL"}, {"measurement": "Cholesterol, LS Mean Change from Baseline (SE)", "setting": "[1]; 1.25 mg/day", "value": "−19.9 (7.30) mg/dL"}, {"measurement": "HDL-C, Difference (95% CI) from placebo", "setting": "[1]; 1.25 mg/day", "value": "−1.4 (−6.89, 4.13) mg/dL"}, {"measurement": "HDL-C, Final On-Treatment Visit Mean (SD)", "setting": "[1]; 1.25 mg/day", "value": "53.9 (22.23) mg/dL"}, {"measurement": "HDL-C, LS Mean Change from Baseline (SE)", "setting": "[1]; 1.25 mg/day", "value": "−3.7 (1.73) mg/dL"}, {"measurement": "Had ≧30% Reduction in UACR and No Edema (no moderate or severe adverse event of edema)", "setting": "[1]; 1.25 mg/day", "value": 28.6, "unit": "%"}, {"measurement": "LDL-C, Difference (95% CI) from placebo", "setting": "[1]; 1.25 mg/day", "value": "−9.8 (−33.30, 13.64) mg/dL"}, {"measurement": "LDL-C, Final On-Treatment Visit Mean (SD)", "setting": "[1]; 1.25 mg/day", "value": "78.9 (37.01) mg/dL"}, {"measurement": "LDL-C, LS Mean Change from Baseline (SE)", "setting": "[1]; 1.25 mg/day", "value": "−13.3 (7.21) mg/dL"}, {"measurement": "Percentage of Subjects with ≧30% Reduction in Log-Transformed UACR from Baseline to Final Measurement", "setting": "[1]; 1.25 mg/day", "value": 42.9, "unit": "%"}, {"measurement": "Percentage of Subjects with ≧40% Reduction in Log-Transformed UACR from Baseline to Final Measurement", "setting": "[1]; 1.25 mg/day", "value": 42.9, "unit": "%"}, {"measurement": "Percentage of Subjects with ≧50% Reduction in Log-Transformed UACR from Baseline to Final Measurement", "setting": "[1]; 1.25 mg/day", "value": 35.7, "unit": "%"}, {"measurement": "Triglycerides, Difference (95% CI) from placebo", "setting": "[1]; 1.25 mg/day", "value": "−31.0 (−108.09, 46.10) mg/dL"}, {"measurement": "Triglycerides, Final On-Treatment Visit Mean (SD)", "setting": "[1]; 1.25 mg/day", "value": "187.1 (115.90) mg/dL"}, {"measurement": "Triglycerides, LS Mean Change from Baseline (SE)", "setting": "[1]; 1.25 mg/day", "value": "−3.5 (24.59) mg/dL"}, {"measurement": "geometric mean reduction in UACR, baseline to final on-treatment measurement", "setting": "[1]; 1.25 mg/day", "value": 37.4, "unit": "%"}, {"measurement": "total cholesterol, LDL-C, and triglycerides compared with placebo", "setting": "[1]; 1.25 mg/day", "value": "greater mean decreases"}, {"measurement": "UACR Between-group Comparison Difference (90% CI)", "setting": "[1]; 1.25 mg/day vs placebo", "value": "−0.11 (−0.43, 0.21)"}, {"measurement": "UACR Change from Baseline LS Mean (SE)", "setting": "[1]; 1.25 mg/day", "value": "−0.47", "unit": "log mg/g creatinine"}, {"measurement": "UACR Geometric Mean Change (Percent)", "setting": "[1]; 1.25 mg/day", "value": "−37.45", "unit": "%"}, {"measurement": "decrease in MAP", "setting": "ob-ZSF1 rats; 1.5 mg/kg/day combined with losartan (10 mg/kg/day)", "value": "approximately the same as the decrease in MAP when losartan was administered alone"}, {"measurement": "mean arterial pressure (MAP)", "setting": "ob-ZSF1 rats; alone at 1.5 mg/kg/day or 5 mg/kg/day", "value": "did not significantly affect mean arterial pressure"}, {"measurement": "Risk of edema", "setting": "[2]; Dose 0.25 mg", "value": 15, "unit": "%"}, {"measurement": "Risk of edema", "setting": "[2]; Dose 0.75 mg", "value": 22, "unit": "%"}, {"measurement": "Risk of edema", "setting": "[2]; Dose 1.75 mg", "value": 43, "unit": "%"}, {"measurement": "Any adverse event", "setting": "[3]; 0.75 mg, N = 59", "value": "37 (62.7) N (%) of Subjects"}, {"measurement": "Any adverse event leading to discontinuation of study drug", "setting": "[3]; 0.75 mg, N = 59", "value": "5 (8.5) N (%) of Subjects"}, {"measurement": "Death", "setting": "[3]; 0.75 mg, N = 59", "value": "0 N (%) of Subjects"}, {"measurement": "Fatal adverse event", "setting": "[3]; 0.75 mg, N = 59", "value": "0 N (%) of Subjects"}, {"measurement": "Possibly or probably drug-related adverse event", "setting": "[3]; 0.75 mg, N = 59", "value": "16 (27.1) N (%) of Subjects"}, {"measurement": "Serious adverse event", "setting": "[3]; 0.75 mg, N = 59", "value": "4 (6.8) N (%) of Subjects"}, {"measurement": "Severe adverse event", "setting": "[3]; 0.75 mg, N = 59", "value": "5 (8.5) N (%) of Subjects"}, {"measurement": "Cholesterol, Difference (95% CI) from placebo", "setting": "[3]; 0.75 mg/day", "value": "−14.1 (−28.65, 0.53) mg/dL"}, {"measurement": "Cholesterol, Final On-Treatment Visit Mean (SD)", "setting": "[3]; 0.75 mg/day", "value": "148.9 (36.93) mg/dL"}, {"measurement": "Cholesterol, LS Mean Change from Baseline (SE)", "setting": "[3]; 0.75 mg/day", "value": "−13.0 (3.93) mg/dL"}, {"measurement": "HDL-C, Difference (95% CI) from placebo", "setting": "[3]; 0.75 mg/day", "value": "0.2 (−3.68, 4.13) mg/dL"}, {"measurement": "HDL-C, Final On-Treatment Visit Mean (SD)", "setting": "[3]; 0.75 mg/day", "value": "42.1 (12.06) mg/dL"}, {"measurement": "HDL-C, LS Mean Change from Baseline (SE)", "setting": "[3]; 0.75 mg/day", "value": "−2.2 (1.05) mg/dL"}, {"measurement": "Had ≧30% Reduction in UACR and No Edema (no moderate or severe adverse event of edema)", "setting": "[3]; 0.75 mg/day", "value": "27 (47.4) Number (%) of Subjects"}, {"measurement": "Hemoglobin, Difference (95% CI) from placebo", "setting": "[3]; 0.75 mg/day", "value": "−0.94 (−1.423, −0.450) g/dL"}, {"measurement": "Hemoglobin, LS Mean Change from Baseline (SE)", "setting": "[3]; 0.75 mg/day", "value": "−0.97 (0.126) g/dL"}, {"measurement": "LDL-C, Difference (95% CI) from placebo", "setting": "[3]; 0.75 mg/day", "value": "−12.5 (−23.56, −1.41) mg/dL"}, {"measurement": "LDL-C, Final On-Treatment Visit Mean (SD)", "setting": "[3]; 0.75 mg/day", "value": "71.4 (27.39) mg/dL"}, {"measurement": "LDL-C, LS Mean Change from Baseline (SE)", "setting": "[3]; 0.75 mg/day", "value": "−10.3 (3.01) mg/dL"}, {"measurement": "Percentage of Subjects with ≧30% Reduction in Log-Transformed UACR from Baseline to Final Measurement", "setting": "[3]; 0.75 mg/day", "value": 50.9, "unit": "%"}, {"measurement": "Percentage of Subjects with ≧40% Reduction in Log-Transformed UACR from Baseline to Final Measurement", "setting": "[3]; 0.75 mg/day", "value": 38.6, "unit": "%"}, {"measurement": "Percentage of Subjects with ≧50% Reduction in Log-Transformed UACR from Baseline to Final Measurement", "setting": "[3]; 0.75 mg/day", "value": 29.8, "unit": "%"}, {"measurement": "Triglycerides, Difference (95% CI) from placebo", "setting": "[3]; 0.75 mg/day", "value": "−37.6 (−97.24, 22.01) mg/dL"}, {"measurement": "Triglycerides, Final On-Treatment Visit Mean (SD)", "setting": "[3]; 0.75 mg/day", "value": "179.9 (101.27) mg/dL"}]}
